{"source": "patent US6492495B1", "about": "“PTP-S31: a novel protein tyrosine phosphatase” (Max-Planck-Gesellschaft zur Forderung der Wissenschaften …, priority 1993, dated 2002)", "key": {"LAR": {"tested_on": "LAR", "conditions": "Raytide substrate, cited from earlier work"}, "[1]": {"molecular_target": "T1, GST/PTP-S31 fusion protein (S31D) (Homo sapiens, UniProt Q9UMZ3)", "T1 construct": "p16 encodes a fusion protein of glutathione-S-transferase and PTP-S31D (starting with the first methionine); made in house; host or cells: E. coli DH5α and SURE", "T1 sequence (Q9UMZ3 with tags, fused parts or gaps)": "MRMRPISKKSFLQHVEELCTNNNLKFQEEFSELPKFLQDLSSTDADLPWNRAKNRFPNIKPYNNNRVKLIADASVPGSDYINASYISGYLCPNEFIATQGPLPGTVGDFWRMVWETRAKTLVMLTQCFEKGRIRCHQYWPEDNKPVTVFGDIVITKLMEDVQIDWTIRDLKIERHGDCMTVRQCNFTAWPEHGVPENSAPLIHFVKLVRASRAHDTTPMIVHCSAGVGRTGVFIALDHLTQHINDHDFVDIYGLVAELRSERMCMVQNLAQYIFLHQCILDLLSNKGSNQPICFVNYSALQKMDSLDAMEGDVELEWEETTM", "assay": "PTP assay of GST/PTP-S31D fusion protein on glutathione-Sepharose beads, substrate pNP-P, effect of agents", "assay_type": "biochemical", "conditions": "25 mM pNP-P", "experimental": "The activity of PTP-S31D towards the substrate p-nitrophenyl phosphate (pNP-P) was measured essentially as described by Tonks et al., J. Biol. Chem. 263:6731-6737 (1988)). Increasing amounts of the glutathione-Sepharose beads with GST/PTP-S31D, GST/PTP-S31C and GST, respectively, from above were incubated with 25 mM pNP-P at room temperature in a reaction mixture containing 50 mM 2-(N-morpholino) ethane sulfonic acid (MES) pH 5.5, 10 mM dithiothreitol, and 5 mM ethylenediamine tetraacetic acid (EDTA). The reaction was stopped by addition of equal volumes of 0.4 M NaOH. After centrifugation, the supernatants were transferred to microtiter plates and the absorbance at 405 nm was read with a Dynatech MR5000 reader.\nThe activity of the GST/PTP-S31D fusion protein towards pNP-P is measured as described in Section 10, above. The substances to be analyzed for their ability to stimulate or inhibit phosphatase activity are added to the GST/PTP-S31D fusion protein 5 minutes prior to the addition of pNP-P. A similar procedure is used for PTP-S31D expressed in 293 cells, where the PTP-S31D/293 cell lysate is used directly.\nThe indicated concentrations of the agents are the final concentrations in the reaction mixture after addition of the substrate, pNP-P. The phosphatase assay mixture contained 50 mM 2-(N-Morpholino)ethane sulfonic acid (MES) pH 5.5, 10 mM dithiothreitol, 25 mM pNP-P and 2 μl of the GST/PTP-S31-Sepharose suspension. When testing orthovanadate, poly(Glu/Tyr) 4:1 and poly-L-lysine, 5 mM EDTA was included in the assay mixture. The reaction was carried out at room temperature and stopped after 30 minutes by addition of equal volumes of 0.4M NaOH. After centrifugation, the supernatants were transferred to microtiter plates and the absorbance at 405 nm read with a Dynatech MR5000 plate reader. For comparison, Table I includes published data of the activity of PTPB and LAR using Raytide as a substrate (Itoh et al (J. Biol. Chem. 267: 12356-12363 (1992))."}, "PTPβ": {"molecular_target": "PTPβ (Homo sapiens, UniProt P23467)", "sequence (P23467 1643-1997 limits assumed)": "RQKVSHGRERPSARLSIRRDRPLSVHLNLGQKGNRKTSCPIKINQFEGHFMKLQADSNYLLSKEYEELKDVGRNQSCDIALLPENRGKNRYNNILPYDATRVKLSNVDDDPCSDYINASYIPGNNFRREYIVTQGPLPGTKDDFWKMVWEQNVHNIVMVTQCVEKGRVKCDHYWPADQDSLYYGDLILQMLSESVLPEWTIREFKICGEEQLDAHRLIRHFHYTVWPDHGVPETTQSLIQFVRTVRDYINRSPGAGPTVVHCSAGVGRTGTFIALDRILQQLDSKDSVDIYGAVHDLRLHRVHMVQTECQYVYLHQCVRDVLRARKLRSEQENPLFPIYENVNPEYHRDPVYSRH", "conditions": "Raytide substrate, cited from earlier work"}, "[2]": {"tested_on": "skeletal muscle or adipocytes", "conditions": "whole cells such as skeletal muscle or adipocytes; cited from earlier work"}, "[3]": {"conditions": "agent 1 μg/ml final, MES pH 5.5, 5 mM EDTA, 30 min room temperature"}, "[4]": {"conditions": "agent 10 μg/ml final, MES pH 5.5, 5 mM EDTA, 30 min room temperature"}, "[5]": {"conditions": "agent 100 μg/ml final, MES pH 5.5, 5 mM EDTA, 30 min room temperature"}, "[6]": {"conditions": "agent 1 mM final, MES pH 5.5, 30 min room temperature"}, "[7]": {"conditions": "agent 10 mM final, MES pH 5.5, 30 min room temperature"}, "[8]": {"conditions": "agent 0.1 mM final, MES pH 5.5, 30 min room temperature"}}, "note": "Read-outs that look alike come from different tables or passages of the source.", "data": [{"molecule": "poly(Glu/Tyr) 4:1 [Poly (Glu/Tyr)]", "values": [{"measurement": "PTP Activity (% of control) LAR", "setting": "LAR; agent 1 μg/ml", "result": "103 % of control"}, {"measurement": "PTP Activity (% of control) LAR", "setting": "LAR; agent 10 μg/ml", "result": "97 % of control"}, {"measurement": "PTP Activity (% of control) LAR", "setting": "LAR; agent 100 μg/ml", "result": "96 % of control"}, {"measurement": "PTP Activity (% of control) S31D", "setting": "[1]; [3]", "result": "84 % of control"}, {"measurement": "PTP Activity (% of control) S31D", "setting": "[1]; [4]", "result": "85 % of control"}, {"measurement": "PTP Activity (% of control) S31D", "setting": "[1]; [5]", "result": "77 % of control"}, {"measurement": "PTP Activity (% of control) PTPβ", "setting": "PTPβ; agent 1 μg/ml", "result": "97 % of control"}, {"measurement": "PTP Activity (% of control) PTPβ", "setting": "PTPβ; agent 10 μg/ml", "result": "85 % of control"}, {"measurement": "PTP Activity (% of control) PTPβ", "setting": "PTPβ; agent 100 μg/ml", "result": "61 % of control"}]}, {"molecule": "[Cl][Mn][Cl]", "note": "[MnCl2]", "values": [{"measurement": "PTP Activity (% of control) LAR", "setting": "LAR; agent 1 mM", "result": "72 % of control"}, {"measurement": "PTP Activity (% of control) LAR", "setting": "LAR; agent 10 mM", "result": "30 % of control"}, {"measurement": "PTP Activity (% of control) S31D", "setting": "[1]; [6]", "result": "110 % of control"}, {"measurement": "PTP Activity (% of control) S31D", "setting": "[1]; [7]", "result": "140 % of control"}, {"measurement": "PTP Activity (% of control) PTPβ", "setting": "PTPβ; agent 1 mM", "result": "85 % of control"}, {"measurement": "PTP Activity (% of control) PTPβ", "setting": "PTPβ; agent 10 mM", "result": "64 % of control"}]}, {"molecule": "[O]=[V]([O-])([O-])[O-]", "note": "[Orthovanadate, orthovanadate]", "values": [{"measurement": "PTP Activity (% of control) LAR", "setting": "LAR; agent 0.1 mM", "result": "59 % of control"}, {"measurement": "PTP Activity (% of control) LAR", "setting": "LAR; agent 1 mM", "result": "25 % of control"}, {"measurement": "PTP Activity (% of control) S31D", "setting": "[1]; [8]", "result": "64 % of control"}, {"measurement": "PTP Activity (% of control) S31D", "setting": "[1]; [6]", "result": "23 % of control"}, {"measurement": "PTP Activity (% of control) PTPβ", "setting": "PTPβ; agent 0.1 mM", "result": "33 % of control"}, {"measurement": "PTP Activity (% of control) PTPβ", "setting": "PTPβ; agent 1 mM", "result": "6 % of control"}]}, {"molecule": "[Cl-].[Cl-].[Mg+2]", "note": "[MgCl2]", "values": [{"measurement": "PTP Activity (% of control) LAR", "setting": "LAR; agent 1 mM", "result": "119 % of control"}, {"measurement": "PTP Activity (% of control) LAR", "setting": "LAR; agent 10 mM", "result": "56 % of control"}, {"measurement": "PTP Activity (% of control) S31D", "setting": "[1]; [6]", "result": "123 % of control"}, {"measurement": "PTP Activity (% of control) S31D", "setting": "[1]; [7]", "result": "140 % of control"}, {"measurement": "PTP Activity (% of control) PTPβ", "setting": "PTPβ; agent 1 mM", "result": "90 % of control"}, {"measurement": "PTP Activity (% of control) PTPβ", "setting": "PTPβ; agent 10 mM", "result": "141 % of control"}]}, {"molecule": "poly-L-lysine", "values": [{"measurement": "PTP Activity (% of control) LAR", "setting": "LAR; agent 1 μg/ml", "result": "123 % of control"}, {"measurement": "PTP Activity (% of control) LAR", "setting": "LAR; agent 10 μg/ml", "result": "230 % of control"}, {"measurement": "PTP Activity (% of control) LAR", "setting": "LAR; agent 100 μg/ml", "result": "247 % of control"}, {"measurement": "PTP Activity (% of control) S31D", "setting": "[1]; [3]", "result": "156 % of control"}, {"measurement": "PTP Activity (% of control) S31D", "setting": "[1]; [4]", "result": "172 % of control"}, {"measurement": "PTP Activity (% of control) S31D", "setting": "[1]; [5]", "result": "192 % of control"}, {"measurement": "PTP Activity (% of control) PTPβ", "setting": "PTPβ; agent 1 μg/ml", "result": "239 % of control"}, {"measurement": "PTP Activity (% of control) PTPβ", "setting": "PTPβ; agent 10 μg/ml", "result": "653 % of control"}, {"measurement": "PTP Activity (% of control) PTPβ", "setting": "PTPβ; agent 100 μg/ml", "result": "125 % of control"}]}, {"molecule": "[Cl-].[Cl-].[Zn+2]", "note": "[ZnCl2]", "values": [{"measurement": "PTP Activity (% of control) LAR", "setting": "LAR; agent 0.1 mM", "result": "90 % of control"}, {"measurement": "PTP Activity (% of control) LAR", "setting": "LAR; agent 1 mM", "result": "120 % of control"}, {"measurement": "PTP Activity (% of control) LAR", "setting": "LAR; agent 10 mM", "result": "6 % of control"}, {"measurement": "PTP Activity (% of control) S31D", "setting": "[1]; [8]", "result": "68 % of control"}, {"measurement": "PTP Activity (% of control) S31D", "setting": "[1]; [6]", "result": "13 % of control"}, {"measurement": "PTP Activity (% of control) S31D", "setting": "[1]; [7]", "result": "9 % of control"}, {"measurement": "PTP Activity (% of control) PTPβ", "setting": "PTPβ; agent 0.1 mM", "result": "18 % of control"}, {"measurement": "PTP Activity (% of control) PTPβ", "setting": "PTPβ; agent 1 mM", "result": "3 % of control"}, {"measurement": "PTP Activity (% of control) PTPβ", "setting": "PTPβ; agent 10 mM", "result": "0 % of control"}]}, {"molecule": "pervanadate", "values": [{"measurement": "insulin response of whole cells", "setting": "[2]", "result": "almost full insulin response"}]}]}
